# Measured values as given in patent publication US4405643A, “Treatment of acute pulmonary edema with arginine esters” (Italfarmaco S.p.A., priority 1979, dated 1983).
# Structures can show the parent of a compound that is named as a salt.
# Legend:
# [1] = Protection against pulmonary edema (adrenaline-induced acute edema of the lungs); type: in vivo, male albino rats of Wistar type; settings: parenteral, 15 min before adrenaline
# Method: The method of A. M. Rothschild and A. Castania (Arch. Pharmacol., 295, 177 (1976)), has been used to develop the acute edema in the lungs and substances of known therapeutic activity have been used for comparison purpose.
# For the test, male albino rats of Wistar type of average weight 250-350 grams, have been used for the test. The rats were stabilized for a period of ten days at a temperature of 21°±1° C., under conditions of controlled diet and water "ad libitum". Prior to the test, the animals were divided into groups of ten for the purpose of achieving good randomization. Each dose was tried on three groups of animals. The animals were anesthetized with pentobarbital in a dose of 30 mg/kg at the beginning of the test. After the animals were in complete narcosis, the following substances were administered by the parenteral route:
# 1. to the animals as controls, physiological saline solution in the amount of 1 ml/kg,
# 2. to the animals in the test, a solution of the substance being tested in physiological saline solution in the amount of 1 ml/kg in the doses reported hereinbelow in the table.
# After a period of 15 minutes, for the purpose of determining the protective activity of the substances, adrenaline was administered in the amount of 16 γ/kg by the endovenous route and in physiological saline solution, for the purpose of causing acute edema.
# After five minutes, the animals were killed by removal of the head, the lungs were removed and the weight of the lungs were determined. The results of the test are reported in Table 1 hereinbelow, together with the concentration of the substances and the relative inhibition of edema in percent.
# [2] = Protection against anaphylactic shock (horse serum); type: in vivo, male albino guinea pigs; settings: parenteral, with horse serum challenge, after 12 h
# Method: The anaphylactic shock has been induced according to the method of S. M. Feinberg, M. Pharmacol. Exp. Therapeut., 99, 195 (1950). There have been used male albino guinea pigs of average weight, 350±20 grams previously stabilized for a period of ten days at a temperature of 21°±1° C., under conditions of controlled diet and water "ad libitum". Three days before the beginning of the experiment, the animals are divided in groups of ten for the purpose of achieving good randomization. Each single dose has been tried on three groups of animals.
# The sensitization has been carried out by administration of 1 ml/guinea pig through the endovenous route of horse serum, (whole serum, not treated with preservatives) diluted 1:10 in physiological saline solution. After 14 days, the solutions of the substances being tested and the samples of physiological solutions for use with the controls are administered through the parenteral route. Simultaneously, 1 ml/guinea pig of horse serum, undiluted is administered, this substance being used as the agent which prompts the anaphylaxis. The percentage of mortality is determined after 12 hours.
# [3] = test system: Fibrin Degradation Products; assay: Inhibition of hyperfibrinolysis caused by urokinase (F.D.P., staphylococcal clumping test); type: in vivo, Wistar rats; settings: parenteral, 30 min before urokinase 2500 U.I/rat
# Method: The induction of hyperfibrinolysis state is caused by administration of urokinase. The determination of the inhibition is carried out by determination of the F.D.P. value, that is Fibrin Degradation Products, according to the procedure of J. Hawiger et al, J. Lab. Clin. Med. 75, 93 (1970), by means of the staphylococcal clumping test (Boehringer Mannheim GmbH test).
# There are used Wistar rats of 300 grams ±10 by weight previously stabilized for a period of ten days at a temperature of 21°±1° C., under conditions of controlled diet and water "ad libitum". Twenty-four hours prior to the beginning of the experiment, the animals are divided in groups of ten for the purpose of achieving randomization. Each individual dose is tried on three groups of animals.
# At the beginning of the test, zero time, the compounds being tested are administered through the parenteral route. In the case of the control animals, at the same time an equal volume of a physiological saline solution is administered except that some blood is removed by means of a cardiac puncture, for the purpose of determining the basal fibrinolytic activity. After 30 minutes, human urokinase (the composition marketed by Ukidan-Serono) is administered intravenously in the amount of 2500 U.I/rat. After an additional period of ten minutes, blood is removed by means of a cardiac puncture for the final determination of F.D.P., a determination which is expressed in […].
# [4] = Protection against shock caused by endotoxins (lipopolysaccharide B from S. Enteritidis); type: in vivo, male rats of Wistar type; settings: parenteral, 1 h before endotoxin, after 24 h
# From the text: Endotoxin-induced shock has been produced according to the method reported by A. Bertelli and L. Donati, in the publication "The Influence of Some Enzymes and Enzymes Inhibitors in Shock", published in "SHOCK Biochemical,Pharmaceutical and Clinical Aspects"; A. Bertelli and N. Back Editors, Advances in Experimental Medicine and Biology; Volume 9, Plenum Press New York - London 1970, page 215. By way of comparison, there has been used a substance of well known therapeutical activity, specifically aprotinine, the commercial products marketed by Farbenfabriken Bayer, under the name "Trasylol". Male rats of Wistar type of 120 grams by weight ±10 have been used. The rats were previously stabilized for a period of ten days at a temperature of 21°±1° C. under a controlled diet and water "ad libitum". Twenty-four hours prior to the test, the animals were divided in groups of ten for the purpose of achieving randomization. Every single dose has been tried on six groups of animals.
# Lipopolysaccharide B from S. Enteritidis (Difco Labs.) was used as the endotoxin. This substance was administered in the dose of 10 mg/kg by the endoperitoneal route, one hour after administration of the substance being administered by the parenteral route or in the form of a physiological solution in equal volume per kilogram to the animals being used as control.
# The mortality in percent was determined in the animals being tested as compared with the controls after twenty-four hours.
smiles,measurement,setting,value
"CCOC(=O)[C@H](N)CCCNC(=N)N [D-A.E., DArginine ethyl ester hydrochloride]",% INHIBITION OF EDEMA,[1]; dose 0.1 mg/kg,7%
same,% INHIBITION OF EDEMA,[1]; dose 0.25 mg/kg,11%
same,% INHIBITION OF EDEMA,[1]; dose 0.5 mg/kg,3%
same,% INHIBITION OF EDEMA,[1]; dose 1 mg/kg,4.2%
same,% INHIBITION OF EDEMA,[1]; dose 2.5 mg/kg,7%
same,% INHIBITION OF EDEMA,[1]; dose 5 mg/kg,5.3%
same,% INHIBITION OF EDEMA,[1]; dose 10 mg/kg,6%
same,% INHIBITION OF EDEMA,[1]; dose 20 mg/kg,2.5%
same,% MORTALITY,[2]; dose 10 mg/kg,76.7%
same,% MORTALITY,[2]; dose 20 mg/kg,79.4%
same,% MORTALITY,[2]; dose 50 mg/kg,81.0%
same,F.D.P.,[3]; dose 5 mg/kg,3.20 milliliters
same,F.D.P.,[3]; dose 10 mg/kg,3.16 milliliters
same,F.D.P.,[3]; dose 20 mg/kg,3.19 milliliters
same,% MORTALITY,[4]; dose 5 mg/kg,72%
same,% MORTALITY,[4]; dose 10 mg/kg,67%
same,% MORTALITY,[4]; dose 20 mg/kg,69.3%
same,% MORTALITY,[4]; dose 50 mg/kg,71%
